Results: patent publication EP2386565A2, “Compounds and methods to inhibit or augment an inflammatory response” (Cambridge Enterprise Ltd., priority 1999, dated 2000)
Positions of bridges follow the written chain, without caps; N, C: chain ends. Non-standard residues stand in square brackets, D forms with d. Residues, ends and D or L forms follow the SMILES beside them. No end group written: not given here.

How the values were obtained:
[1] = system: MCP-1 induced THP-1 migration; assay: THP-1 trans-well migration assay, MCP-1 as chemoattractant; assay type: cell-based, human; conditions: for ED50 v MCP-1: MCP-1 induced chemotaxis of THP-1 cells; for % inhibition at 100 µM versus MCP-1: THP-1 migration, agent at 100 µM with the cells, n.s. or dash = no statistically significant inhibition; for ED50 (µM) versus MCP-1: inhibition of THP-1 migration, n.s./ns = not statistically significant
Procedure: (§1) To determine whether an agent inhibits a chemokine-induced activity, such as macrophage recruitment, varying amounts of the agent are mixed with cells in the presence of a known chemoattractant. For example, a range of known concentrations of an agent, e.g., a chemokine peptide, is incubated with a defined number (e.g., 10^4 - […]) of human THP-1 monocyte cells in individual wells of the top compartment of a trans-well plate. Chemokine (such as MCP-1, MIP1α, IL8 or SDF-1α), at a concentration known to cause significant migration of THP-1 cells in the trans-well migration assay, is placed in the lower compartment (Figure 1). Cells are then incubated at 37°C for a period sufficient to allow migration, e.g., 4 hours. After incubation, the cells are gently removed from the top of the filter with a pipette, 20 µl of 20 mM EDTA in simple PBS is added into each top well, and incubated for 20 minutes at 4°C. The filter is carefully flushed with media using a gentle flow, and removed. A standard curve consisting of a two-fold dilution series of THP-1 cells (in 29 µl) is prepared to accurately quantify the number of cells that have migrated. Migrated cells are stained with 3 µl of MTT stock dye solution which is added directly into each well (5 mg/ml in RPMI-1640 without phenol red, Sigma Chemical Co.) and incubated at 37°C for 4 hours. The media is carefully aspirated from each well, and the converted dye is solubilized by 20 µl of DMSO. Absorbance of converted dye is measured at a wavelength of 595 nm using an ELISA plate reader. The number of migrated cells in each well is then determined by interpolation of the standard curve (see also Imai et al.,J. Biol. Chem., 272, 15036 (1997)).
Any method suitable for counting cells can be used, for example, counting with a hemocytometer, incubation of the cells with MTT (see above), or FACS analysis. A negative control assay is also performed, using TGF-β or another non-chemokine chemoattractant (e.g., IL1β or TNFα). To assess whether the agent is cytotoxic, the same concentrations of agent are incubated with THP-1 cells. Agents which 1) are not cytotoxic at levels which inhibit migration, 2) are ineffective at inhibiting the negative control-induced migration, and 3) reduce or inhibit chemokine-induced THP-1 migration, are agents which fall within the scope of the invention.
For this assay, THP-1 cells were maintained at a density of 4 × 10^5 cells per ml in RPMI-1640 supplemented with 10% fetal calf serum + 20 µM 2-mercaptoethanol. Chemotaxis was induced in a 96-well disposable chemotaxis chamber fitted with a 5 µM polycarbonate filter (PVP free, ChemoTX, Neuroprobe Inc., Cabin John). […] The framed filter was aligned with the holes in the corner of the filter frame and placed over the wells.
(§2) Five × 10^4 THP-1 cells in 25 µl of RPMI-1640 were added to the upper compartment. Peptides were dissolved in Milli Q water and then serially diluted in culture medium. In most cases, the serially diluted peptides were added to the upper compartment of the chemotaxis chamber. The chamber was incubated at 37°C in a humidified atmosphere of 5% CO2 for 4 hours.
After incubation, the cells were gently removed from the top of the filter with a pipette, 20 µl of 20 mM EDTA in PBS was added into each top well, and the mixture was incubated for 20 minutes at 4°C. The filter was then carefully flushed with media using a gentle flow, and removed. A standard curve was prepared to accurately quantify the number of THP-1 cells that had migrated. The curve was based on a two-fold dilution series of THP-1 cells (top standard 100,000 cells in 29 µl). Cells which had migrated, and in separate wells, the cells in the standards, were stained with 3 µl of MTT stock solution which was added directly into each well (5 mg/ml in RPMI 1640 without phenol red, Sigma Chemical Co.) and incubated at 37°C for 4 hours. The media was carefully aspirated from each well, and the converted dye was solubilized by 20 µl of DMSO. […]

[2] = molecular target: T1, Duffy Antigen Receptor for Chemokines (DARC) (Homo sapiens, UniProt Q16570); assay: DARC binding: competition with 125I-MCP-1 on red blood cells; conditions: for DARC binding (µM): ns = not significantly different from control, >100 = not determined
T1 sequence (Q16570 1-336): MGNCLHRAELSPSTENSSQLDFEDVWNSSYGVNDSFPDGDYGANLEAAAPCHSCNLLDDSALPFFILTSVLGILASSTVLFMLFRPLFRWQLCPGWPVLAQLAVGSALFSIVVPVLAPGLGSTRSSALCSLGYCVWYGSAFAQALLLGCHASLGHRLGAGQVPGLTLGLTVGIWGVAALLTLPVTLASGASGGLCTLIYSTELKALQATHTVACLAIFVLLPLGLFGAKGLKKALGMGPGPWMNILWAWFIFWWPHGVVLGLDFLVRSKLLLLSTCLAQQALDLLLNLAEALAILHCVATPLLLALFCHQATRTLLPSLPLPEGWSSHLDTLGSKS

[3] = system: MIP1α induced THP-1 migration; assay: THP-1 trans-well migration assay, MIP1α as chemoattractant; assay type: cell-based, human; conditions: for ED50 (µM) versus MIP1α: inhibition of THP-1 migration, n.s./ns = not statistically significant
Procedure: as §1
(§3) For this assay, THP-1 cells were maintained at a density of 4 × 10^5 cells per ml in RPMI-1640 supplemented with 10% fetal calf serum + 20 µM 2-mercaptoethanol. Chemotaxis was induced in a 96-well disposable chemotaxis chamber fitted with a 5 µM polycarbonate filter (PVP free, ChemoTX, Neuroprobe Inc., Cabin John). Twenty-nine µl of chemoattractant (recombinant human chemokine; 50 ng/ml, i.e., 5.9 nM) or control (100 ng/ml TGFβ) was added to the lower compartment of each well. The framed filter was aligned with the holes in the corner of the filter frame and placed over the wells.
as §2
(§4) After incubation, the cells were gently removed from the top of the filter with a pipette, 20 µl of 20 mM EDTA in PBS was added into each top well, and the mixture was incubated for 20 minutes at 4°C. The filter was then carefully flushed with media using a gentle flow, and removed. A standard curve was prepared to accurately quantify the number of THP-1 cells that had migrated. The curve was based on a two-fold dilution series of THP-1 cells (top standard 100,000 cells in 29 µl). Cells which had migrated, and in separate wells, the cells in the standards, were stained with 3 µl of MTT stock solution which was added directly into each well (5 mg/ml in RPMI 1640 without phenol red, Sigma Chemical Co.) and incubated at 37°C for 4 hours. The media was carefully aspirated from each well, and the converted dye was solubilized by 20 µl of DMSO. Absorbance of converted dye was measured at a wavelength of 595 nm using an ELISA plate reader. The number of cells that had migrated in each well was determined by interpolation of the standard curve.
(§5) To investigate the receptor specificity of peptide 3 inhibition, the ED50 was determined for peptide 3(1-12)[MCP-1] (SEQ ID NO:1) inhibition of THP-1 migration induced by chemokines which signal through different receptors than MCP-1 receptors. […]

[4] = system: SDF-1α induced THP-1 migration; assay: THP-1 trans-well migration assay, SDF-1α as chemoattractant; assay type: cell-based, human; conditions: for ED50 (µM) versus SDF-1α: inhibition of THP-1 migration, n.s./ns = not statistically significant
Procedure: as §1, §3, §2, §4, §5

[5] = THP-1 migration, agent at 100 µM, n.s. or dash = no statistically significant inhibition

Compound | potency as inhibitor of THP-1 migration induced by MCP-1 relative to the D-ala derivative [1] | ED50 v MCP-1 ([1]; listed as CRD-Cys13Leu4Ile11peptide 3(3-12)[MCP-1]) | ED50 v MCP-1 ([1]; listed as NR58-3.14.3) | Duffy selectivity / DARC specificity ratio ([2]; estimated ka for binding to red blood cells divided by average inhibitory ED50) | % inhibition at 100 µM versus MCP-1 [1] | % inhibition at 100 µM versus MCP-1 ([1]; listed as Peptide 1[MCP-1]) | % inhibition at 100 µM versus MCP-1 ([1]; listed as peptide 1[MCP-1]) | ED50 (µM) versus MCP-1 [1] | ED50 (µM) versus MCP-1 ([1]; listed as Peptide 1[MCP-1]) | % inhibition of the MCP-1 induced migration at 100 µM ([1]; peptide introduced with the chemokine in the lower compartment) | % inhibition at 100 µM versus MIP1α [3, 5] | ED50 (µM) versus MIP1α [3] | % inhibition at 100 µM versus SDF-1α [4, 5] | ED50 (µM) versus SDF-1α [4] | DARC binding (µM) [2]
CC[C@@H](C)[C@H]1NC(=O)[C@@H](CCC(N)=O)NC(=O)[C@H](N)CSSC[C@H](C(N)=O)NC(=O)[C@@H](CC(C)C)NC(=O)[C@@H](CC(=O)O)NC(=O)[C@H]2CCCN2C(=O)[C@@H](CCCCN)NC(=O)[C@@H](CCC(N)=O)NC(=O)[C@@H](CCCCN)NC(=O)[C@@H](Cc2c[nH]c3ccccc23)NC1=O (H-[dC][dQ][dI][dW][dK][dQ][dK][dP][dD][dL][dC]-NH2; disulfide 1-11) | 1000 fold | 1 to 10 nM | 10 nM | > 100 | – | – | – | – | – | – | – | – | – | – | –
CC[C@H](C)[C@H](NC(=O)[C@H](C)NC(=O)[C@H](CC(=O)O)NC(=O)[C@@H]1CCCN1C(=O)[C@H](CCC(N)=O)NC(=O)[C@H](C)N)C(=O)N[C@@H](CC(N)=O)C(=O)N[C@@H](C)C(=O)N1CCC[C@H]1C(=O)N[C@H](C(=O)N[C@H](C(=O)N[C@@H](CS)C(=O)N[C@@H](CS)C(=O)O)[C@@H](C)O)C(C)C [Peptide 1] (H-AQPDAINAPVTCC-OH; N-terminus and C-terminus assumed) | – | – | – | – | n.s.^b | 10% | 10% | n.s.^b | > 100 µM | 48% | n.s.^b | n.s.^b | n.s. | n.s. | –
=cvaekpsksstirrysc= ([dC][dV][dA][dE][dK][dP][dS][dK][dS][dS][dT][dI][dR][dR][dY][dS][dC]; bridge 1-17 (inferred); not fully specified; printed as =cvaekpsksstirrysc=) | – | – | – | – | – | – | – | ns | – | – | – | ns | – | ns | ns
CSYRRITSSKSPKEAVC | – | – | – | – | – | – | – | ns | – | – | – | ns | – | ns | ns
